The values below come from patent US20190300882A1, “METHODS OF TREATING NEUROBLASTOMA AND REAGENTS THEREFOR” (GARVAN INSTITUTE OF MEDICAL RESEARCH, priority 2016, published 2019).

One series concerns IMR-90 cells. Description: Cell toxicity screen of synthetic lethal miRNAs in non-cancer cells. The conditions noted are these: for cell viability in non-cancer cells, DXR (% of control): IMR-90, miRNA + low dose IC30 doxorubicin; for cell viability in non-cancer cells, VCR (% of control): IMR-90, miRNA + low dose IC30 vincristine; for cell viability in non-cancer cells, Media (% of control): IMR-90, miRNA alone (media); for activity in IMR90 cells: even when administered in combination with a chemotherapeutic agent. Here is the method: The cell toxicity screens were performed in IMR-90 cells (normal human fibroblast cells, ATCC).

The subject of series [1] is KELLY cells. Description: Secondary validation screen of synthetic lethal miRNAs with low dose IC30 chemotherapy, cell viability. Format: cell-based. The conditions noted are these: for synthetic lethality with chemotherapy: in both Kelly and SKNDZ MYCN-amplified cells, secondary screen; for Secondary screen Viability (% of control) Kelly DXR: miRNA mimic + low dose IC30 doxorubicin; for Secondary screen Viability (% of control) Kelly VCR: miRNA mimic + low dose IC30 vincristine; for Secondary screen Viability (% of control) Kelly Vehicle: miRNA mimic + vehicle. Here is the method: (§1) KELLY cells were grown in 10% FCS/RPMI as described in Example 1 and reverse transfected in 384-well plate format with 25 nM of a miRNA from the Dharmacon microRNA mimic Library (version 16.0) using liquid-handling robot Calliper Sciclone ALH3000 according to the conditions described in Table 3. After 24 hours, media was changed using a BioTek 406. Media was again changed after 48 hours and 96 hours using a BioTek 406, and at each of those time points low dose IC30 of vincristine or doxorubicin was added to the culture. 144 hours post-transfection, cell viability was determined using CellTiter-Glo luminescent assay (Promega) at 1:2 dilution. Luminescence measurements were taken on the Synergy H4 high-throughput multimode microplate reader as described in Example 1. All screens were performed in duplicates. The experimental design and timeline for this screen are illustrated in FIGS. 5 and 6, respectively.
(§2) The secondary validation screens were performed in accordance with the genome-wide screens described in Example 1 and Example 2, respectively, with the exception that an additional MYCN-amplified neuroblastoma cell line (SK-N-DZ) was added to each screen.
(§3) Furthermore, five additional non-active miRNAs discovered to have no measureable effect across all treatment groups of the genome-wide screen (‘non-lethal’ miRNAs) were included as negative controls.

In series [2] the test system is SK-N-DZ MYCN-amplified neuroblastoma cell line. Description: Secondary validation screen of synthetic lethal miRNAs with low dose IC30 chemotherapy, additional cell line. Format: cell-based. The conditions noted are these: for Additional cell line Viability (% of control) SKNDZ DXR: miRNA mimic + low dose IC30 doxorubicin; for Additional cell line Viability (% of control) SKNDZ VCR: miRNA mimic + low dose IC30 vincristine; for Additional cell line Viability (% of control) SKNDZ Vehicle: miRNA mimic + vehicle. Here is the method: as §1, §2, §3

The subject of series [3] is KELLY cells. Description: Primary miRNA mimic screen in combination with low dose IC30 of vincristine or doxorubicin, cell viability. Format: cell-based. The conditions noted are these: for Primary screen Viability (% of control) Kelly DXR: miRNA mimic 25 nM + low dose IC30 doxorubicin; for Primary screen Viability (% of control) Kelly VCR: miRNA mimic 25 nM + low dose IC30 vincristine; for Primary screen Viability (% of control) Kelly Vehicle: miRNA mimic 25 nM + vehicle. Here is the method:
To systematically identify miRNAs that affect viability and survival of neuroblstoma cells in combination with chemotherapy, a further functional miRNA screen was performed using the 1200 miRNAs from the miRIDIAN miRNA mimic Library (version 16.0; Dharmacon) in combination with low dose IC30 of vincristine or doxorubicin in the two neuroblastoma cancer cell lines. In doing so, the inventors identified miRNAs which result in a lethal phenotype to neuroblastoma cells when administered in combination with low dose IC30 chemotherapy (hereinafter referred to as ‘synthetic lethal’ miRNAs). […] After 24 hours, media was changed using a BioTek 406. […] Luminescence measurements were taken on the Synergy H4 high-throughput multimode microplate reader as described in Example 1. All screens were performed in duplicates.

Consider “hsa-miR-34a-5p (UGGCAGUGUCUUAGCUGGUUGU; chemistry not given here; listed as Homo sapiens)”, for which, in the series with IMR-90 cells, the “cell viability in non-cancer cells, DXR (% of control)” value is listed as 53 % of control; the “cell viability in non-cancer cells, VCR (% of control)” value is reported as 63 % of control; the “cell viability in non-cancer cells, Media (% of control)” value was 46 % of control. In the series with KELLY cells [1], the “synthetic lethality with chemotherapy” value is “substantial synthetic lethality”, the “Secondary screen Viability (% of control) Kelly DXR” value is recorded as 98 % of control, the “Secondary screen Viability (% of control) Kelly VCR” value is listed as 35 % of control and the “Secondary screen Viability (% of control) Kelly Vehicle” value is listed as 96 % of control. Besides, in series [2], the “Additional cell line Viability (% of control) SKNDZ DXR” value is given as 74 % of control, the “Additional cell line Viability (% of control) SKNDZ VCR” value is on record as 57 % of control and the “Additional cell line Viability (% of control) SKNDZ Vehicle” value is listed as 92 % of control. In the series on KELLY cells [3], the “Primary screen Viability (% of control) Kelly DXR” value is on record as 70 % of control, the “Primary screen Viability (% of control) Kelly VCR” value is listed as 36 % of control and the “Primary screen Viability (% of control) Kelly Vehicle” value is reported as 72 % of control.
On to “hsa-miR-380-3p (UAUGUAAUAUGGUCCACAUCUU; chemistry not given here; listed as Homo sapiens)”, for which, in the series on IMR-90 cells, the “cell viability in non-cancer cells, DXR (% of control)” value is 96 % of control; the “cell viability in non-cancer cells, VCR (% of control)” value is given as 117 % of control; the “cell viability in non-cancer cells, Media (% of control)” value was 99 % of control; the “activity in IMR90 cells” value is “minimal activity”. In addition, in the series on KELLY cells [1], the “synthetic lethality with chemotherapy” value was “substantial synthetic lethality”, the “Secondary screen Viability (% of control) Kelly DXR” value was 38 % of control, the “Secondary screen Viability (% of control) Kelly VCR” value is 76 % of control and the “Secondary screen Viability (% of control) Kelly Vehicle” value is given as 90 % of control. Also, in series [2], the “Additional cell line Viability (% of control) SKNDZ DXR” value is reported as 30 % of control, the “Additional cell line Viability (% of control) SKNDZ VCR” value is listed as 80 % of control and the “Additional cell line Viability (% of control) SKNDZ Vehicle” value is reported as 100 % of control. Moreover, in the series on KELLY cells [3], the “Primary screen Viability (% of control) Kelly DXR” value is on record as 20 % of control, the “Primary screen Viability (% of control) Kelly VCR” value is listed as 63 % of control and the “Primary screen Viability (% of control) Kelly Vehicle” value is recorded as 94 % of control.
On to “hsa-miR-99b-5p (guide CACCCGUAGAACCGACCUUGCG; chemistry not given here; listed as Homo sapiens)”, for which, in the series with IMR-90 cells, the “cell viability in non-cancer cells, DXR (% of control)” value is recorded as 72 % of control; the “cell viability in non-cancer cells, VCR (% of control)” value was 75 % of control; the “cell viability in non-cancer cells, Media (% of control)” value was 87 % of control; the “activity in IMR90 cells” value is reported as “minimal activity”. For the same substance, in the series with KELLY cells [1], the “synthetic lethality with chemotherapy” value was “substantial synthetic lethality”, the “Secondary screen Viability (% of control) Kelly DXR” value is given as 29 % of control, the “Secondary screen Viability (% of control) Kelly VCR” value is given as 44 % of control and the “Secondary screen Viability (% of control) Kelly Vehicle” value is given as 67 % of control. Also, in series [2], the “Additional cell line Viability (% of control) SKNDZ DXR” value is 36 % of control, the “Additional cell line Viability (% of control) SKNDZ VCR” value is reported as 61 % of control and the “Additional cell line Viability (% of control) SKNDZ Vehicle” value is 93 % of control. For the same substance, in the series on KELLY cells [3], the “Primary screen Viability (% of control) Kelly DXR” value is reported as 28 % of control, the “Primary screen Viability (% of control) Kelly VCR” value is 49 % of control and the “Primary screen Viability (% of control) Kelly Vehicle” value is given as 65 % of control.
Regarding “hsa-miR-1321 (CAGGGAGGUGAAUGUGAU; chemistry not given here; listed as Homo sapiens)”, in the series on IMR-90 cells, the “cell viability in non-cancer cells, DXR (% of control)” value is 23 % of control; the “cell viability in non-cancer cells, VCR (% of control)” value was 23 % of control; the “cell viability in non-cancer cells, Media (% of control)” value is recorded as 48 % of control. In addition, in the series on KELLY cells [1], the “synthetic lethality with chemotherapy” value is “substantial synthetic lethality”, the “Secondary screen Viability (% of control) Kelly DXR” value is listed as 7 % of control, the “Secondary screen Viability (% of control) Kelly VCR” value is reported as 24 % of control and the “Secondary screen Viability (% of control) Kelly Vehicle” value is 50 % of control. Further, in series [2], the “Additional cell line Viability (% of control) SKNDZ DXR” value is given as 21 % of control, the “Additional cell line Viability (% of control) SKNDZ VCR” value is on record as 45 % of control and the “Additional cell line Viability (% of control) SKNDZ Vehicle” value is 64 % of control. In the series with KELLY cells [3], the “Primary screen Viability (% of control) Kelly DXR” value is recorded as 4 % of control, the “Primary screen Viability (% of control) Kelly VCR” value is on record as 18 % of control and the “Primary screen Viability (% of control) Kelly Vehicle” value was 42 % of control.
For “hsa-miR-485-3p (guide GUCAUACACGGCUCUCCUCUCU; chemistry not given here; listed as Homo sapiens)”, in the series on IMR-90 cells, the “cell viability in non-cancer cells, DXR (% of control)” value is given as 76 % of control; the “cell viability in non-cancer cells, VCR (% of control)” value was 80 % of control; the “cell viability in non-cancer cells, Media (% of control)” value is recorded as 79 % of control; the “activity in IMR90 cells” value was “minimal activity”. Also, in the series on KELLY cells [1], the “synthetic lethality with chemotherapy” value is “substantial synthetic lethality”, the “Secondary screen Viability (% of control) Kelly DXR” value is listed as 47 % of control, the “Secondary screen Viability (% of control) Kelly VCR” value was 53 % of control and the “Secondary screen Viability (% of control) Kelly Vehicle” value is 85 % of control. In addition, in series [2], the “Additional cell line Viability (% of control) SKNDZ DXR” value is recorded as 69 % of control, the “Additional cell line Viability (% of control) SKNDZ VCR” value was 68 % of control and the “Additional cell line Viability (% of control) SKNDZ Vehicle” value was 113 % of control. Besides, in the series with KELLY cells [3], the “Primary screen Viability (% of control) Kelly DXR” value is 23 % of control, the “Primary screen Viability (% of control) Kelly VCR” value is 52 % of control and the “Primary screen Viability (% of control) Kelly Vehicle” value is recorded as 72 % of control.
